Laboratory results: EPA's ToxRefDB 2

Legend:
mouse [1] = settings: Carcinogenicity, other, Oral, Feed, dose end: 2 year, group: systemic
rat [2] = settings: Combined chronic toxicity/carcinogenicity, fischer, Oral, Feed, dose end: 105 week, group: systemic
rabbit = settings: Prenatal developmental toxicity study, new zealand white, Oral, Gavage/Intubation, dose end: 28 GD
mouse [3] = settings: Subchronic oral toxicity in rodents, b6c3f1, Feed, dose end: 13 week, group: systemic, systemic / in life observation / body weight / body weight gain
rat [4] = settings: Combined chronic toxicity/carcinogenicity; fischer; Oral; Feed; dose end: 2 year; group: systemic; systemic / in life observation / body weight / body weight + systemic / in life observation / body weight / body weight gain
rat [5] = settings: Multigenerational reproductive toxicity study, fischer, Oral, Feed, dose end: 3 generation
rat [6] = settings: Prenatal developmental toxicity study, fischer, Oral, Gavage/Intubation, dose end: 15 GD
mouse [7] = settings: Carcinogenicity; b6c3f1; Oral; Feed; dose end: 2 year; group: systemic; systemic / in life observation / body weight / body weight
rat [8] = settings: Subchronic oral toxicity in rodents, fischer, Feed, dose end: 13 week, group: systemic
rat [9] = settings: Carcinogenicity, fischer, Oral, Gavage/Intubation, dose end: 103 week, group: systemic
mouse [10] = settings: Subchronic oral toxicity in rodents, b6c3f1, Gavage/Intubation, dose end: 13 week, group: systemic
rat [11] = settings: Subchronic oral toxicity in rodents, fischer, Gavage/Intubation, dose end: 13 week, group: systemic
rat [12] = settings: Multigenerational reproductive toxicity study, sprague dawley, Oral, Feed, dose end: 2 generation
rat [13] = settings: Carcinogenicity, other, Oral, Feed, dose end: 78 week, group: systemic
rat [14] = settings: Multigenerational reproductive toxicity study, sprague dawley, Oral, Feed, dose end: 2 generation; remark: listed apart in the source
dog = settings: Multigenerational reproductive toxicity study; beagle; Oral; Feed; dose end: 3 generation; group: reproductive; reproductive / reproductive performance / estrous cycle / abnormal
rat [15] = settings: Subchronic oral toxicity in rodents, other, Feed, dose end: 6 week, group: systemic, systemic / in life observation / body weight / body weight
mouse [16] = settings: Multigenerational reproductive toxicity study, other, Oral, Feed, dose end: 5 generation
mouse [17] = settings: Subchronic oral toxicity in rodents, b6c3f1, Feed, dose end: 6 week, group: systemic
mouse [18] = settings: Carcinogenicity; b6c3f1; Oral; Feed; dose end: 78 week; group: systemic; systemic / in life observation / mortality / mortality
[19] = systemic / clinical chemistry / alkaline phosphatase (alp/alk) / alkaline phosphatase (alp/alk) + systemic / clinical chemistry / chloride…
[20] = systemic / clinical chemistry / chloride / chloride + systemic / clinical chemistry / potassium / potassium + systemic / clinical chemistry…
[21] = systemic / in life observation / body weight / body weight + systemic / organ weight / kidney / relative to body weight + systemic / …
[22] = group: developmental, systemic / in life observation / body weight / fetal weight
[23] = group: maternal, systemic / in life observation / body weight / body weight gain + systemic / in life observation / clinical signs / alopecia + systemic / in…
[24] = group: offspring, systemic / in life observation / body weight / offspring (pup) weight
[25] = group: offspring, systemic / in life observation / body weight / offspring (pup) weight + systemic / organ weight / kidney / absolute
[26] = group: parental, systemic / in life observation / body weight / body weight + systemic / pathology microscopic / kidney / casts + systemic / pathology …
[27] = group: developmental, developmental / developmental malformation / general / crown-rump length + developmental / offspring survival late / viability index / …
[28] = group: maternal, systemic / in life observation / clinical signs / blood around eyes and nose + systemic / in life observation / clinical signs / emaciation…
[29] = systemic / in life observation / body weight / body weight gain
[30] = systemic / in life observation / body weight / body weight
[31] = systemic / in life observation / body weight / body weight + systemic / pathology microscopic / liver / neoplastic nodule + systemic / in …
[32] = systemic / in life observation / body weight / body weight + systemic / in life observation / mortality / mortality + systemic / organ …
[33] = systemic / organ weight / heart / absolute + systemic / organ weight / heart / relative to body weight
[34] = systemic / clinical chemistry / alkaline phosphatase (alp/alk) / alkaline phosphatase (alp/alk) + systemic / clinical chemistry / gamma …
[35] = systemic / organ weight / spleen / absolute + systemic / organ weight / spleen / relative to body weight
[36] = group: offspring, developmental / offspring survival late / viability index / viability index + developmental / developmental landmark / preputial separation…
[37] = group: parental, systemic / organ weight / adrenal gland / relative to body weight + systemic / organ weight / kidney / relative to body weight + systemic / …
[38] = systemic / in life observation / clinical signs / abdominogenital staining + systemic / in life observation / clinical signs / hunched …
[39] = group: offspring, systemic / in life observation / clinical signs / [other]
[40] = group: parental, systemic / organ weight / liver / relative to body weight
[41] = group: offspring, systemic / pathology microscopic / blood / leukemia + systemic / pathology microscopic / blood vessel / [other] + systemic / pathology …
[42] = group: parental, systemic / pathology microscopic / blood vessel / [other] + systemic / pathology microscopic / lung / carcinoma + systemic / hematology / …
[43] = systemic / in life observation / body weight / body weight gain + systemic / in life observation / mortality / mortality

## c1ccc(-c2ccccc2)cc1 [Biphenyl]
Mouse [1]; [19]
  LOAEL: > 1050 mg/kg/day
  NOAEL: ≥ 1050 mg/kg/day
Mouse [1]; [20]
  LEL: 97 mg/kg/day
  NEL: < 97 mg/kg/day
Rat [2]; [21]
  LOAEL: > 225 mg/kg/day
  NEL: 25 mg/kg/day
  NOAEL: ≥ 225 mg/kg/day
Rat [2]; systemic / organ weight / kidney / relative to body weight
  LEL: 75 mg/kg/day

## O=C1CCCCCN1 [Caprolactam]
rabbit; [22]
  LEL: 150 mg/kg/day
  LOAEL: > 250 mg/kg/day
  NEL: 50 mg/kg/day
  NOAEL: ≥ 250 mg/kg/day
rabbit; group: maternal, systemic / in life observation / body weight / body weight gain
  LEL: 150 mg/kg/day
rabbit; [23]
  LOAEL: > 250 mg/kg/day
  NEL: 50 mg/kg/day
  NOAEL: ≥ 250 mg/kg/day
Mouse [3]
  LEL: 750 mg/kg/day
  LOAEL: 750 mg/kg/day
  NEL: < 750 mg/kg/day
  NOAEL: < 750 mg/kg/day
Rat [4]
  LEL: 188 mg/kg/day
  LOAEL: 188 mg/kg/day
  NEL: < 188 mg/kg/day
  NOAEL: < 188 mg/kg/day
Rat [5]; [24]
  LEL: 250 mg/kg/day
  NEL: 50 mg/kg/day
Rat [5]; [25]
  LOAEL: > 500 mg/kg/day
  NOAEL: ≥ 500 mg/kg/day
Rat [5]; group: parental, systemic / in life observation / body weight / body weight
  NEL: 250 mg/kg/day
Rat [5]; [26]
  LEL: 500 mg/kg/day
  LOAEL: > 500 mg/kg/day
  NOAEL: ≥ 500 mg/kg/day
Rat [6]; [27]
  LEL: 1000 mg/kg/day
  LOAEL: > 1000 mg/kg/day
  NEL: 500 mg/kg/day
  NOAEL: ≥ 1000 mg/kg/day
Rat [6]; [28]
  LEL: 100 mg/kg/day
  LOAEL: > 1000 mg/kg/day
  NEL: < 100 mg/kg/day
  NOAEL: ≥ 1000 mg/kg/day
Mouse [7]
  LEL: 1120 mg/kg/day
  LOAEL: 1120 mg/kg/day
  NEL: < 1120 mg/kg/day
  NOAEL: < 1120 mg/kg/day
Rat [8]; [29]
  LEL: 31 mg/kg/day
  LOAEL: 125 mg/kg/day
  NEL: < 31 mg/kg/day
Rat [8]; systemic / in life observation / body weight / body weight gain + systemic / in life observation / food consumption / food consumption
  NOAEL: 63 mg/kg/day

## Clc1ccccc1 [Chlorobenzene]
Rat [9]; [30]
  LEL: 60 mg/kg/day
  NEL: < 60 mg/kg/day
Rat [9]; [31]
  LOAEL: > 120 mg/kg/day
  NOAEL: ≥ 120 mg/kg/day
Mouse [10]; [32]
  LOAEL: > 750 mg/kg/day
  NOAEL: ≥ 750 mg/kg/day
Mouse [10]; [33]
  LEL: 60 mg/kg/day
  NEL: < 60 mg/kg/day
Rat [11]; [34]
  LOAEL: > 750 mg/kg/day
  NOAEL: ≥ 750 mg/kg/day
Rat [11]; [35]
  LEL: 60 mg/kg/day
  NEL: < 60 mg/kg/day

## Clc1ccc(C(c2ccc(Cl)cc2)C(Cl)(Cl)Cl)cc1 [p,p'-DDT]
Rat [12]; [36]
  LEL: 25 mg/kg/day
  LOAEL: > 25 mg/kg/day
  NEL: 3.44 mg/kg/day
  NOAEL: ≥ 25 mg/kg/day
Rat [12]; [37]
  LOAEL: > 25 mg/kg/day
  NEL: 0.343 mg/kg/day
  NOAEL: ≥ 25 mg/kg/day
Rat [12]; group: parental, systemic / organ weight / liver / absolute + systemic / organ weight / liver / relative to body weight + systemic / pathology microscopic / …
  LEL: 3.44 mg/kg/day
Rat [13]; [30]
  LOAEL: 21 mg/kg/day
Rat [13]; systemic / in life observation / body weight / body weight + systemic / in life observation / clinical signs / abdominogenital staining + …
  NOAEL: 10.5 mg/kg/day
Rat [13]; [38]
  LEL: 10.5 mg/kg/day
  NEL: < 10.5 mg/kg/day
Rat [14]; [39]
  LEL: 10 mg/kg/day
  LOAEL: > 10 mg/kg/day
  NEL: 1 mg/kg/day
  NOAEL: ≥ 10 mg/kg/day
Rat [14]; [40]
  LEL: 10 mg/kg/day
  LOAEL: > 10 mg/kg/day
  NEL: 1 mg/kg/day
  NOAEL: ≥ 10 mg/kg/day
dog
  LEL: 1 mg/kg/day
  LOAEL: > 10 mg/kg/day
  NEL: < 1 mg/kg/day
  NOAEL: ≥ 10 mg/kg/day
Rat [15]
  LEL: 28.1 mg/kg/day
  LOAEL: 28.1 mg/kg/day
  NEL: 15.8 mg/kg/day
  NOAEL: 15.8 mg/kg/day
Mouse [16]; [41]
  LEL: 0.55 mg/kg/day
  LOAEL: > 0.55 mg/kg/day
  NEL: < 0.55 mg/kg/day
  NOAEL: ≥ 0.55 mg/kg/day
Mouse [16]; [42]
  LEL: 0.55 mg/kg/day
  LOAEL: > 0.55 mg/kg/day
  NEL: < 0.55 mg/kg/day
  NOAEL: ≥ 0.55 mg/kg/day
Mouse [17]; [29]
  LEL: 2.7 mg/kg/day
  NEL: < 2.7 mg/kg/day
Mouse [17]; [43]
  LOAEL: > 26.7 mg/kg/day
  NOAEL: ≥ 26.7 mg/kg/day
Mouse [18]
  LEL: 26.2 mg/kg/day
  LOAEL: > 26.2 mg/kg/day
  NEL: 13.1 mg/kg/day
  NOAEL: ≥ 26.2 mg/kg/day
